{"source": "patent US7186354B2", "about": "“Anticorrosive treating concentrate” (NEC Electronics Corporation, priority 2000, dated 2007)", "test": "solubility of BTA in water (FIG. 1)", "format": "physicochemical", "data": [{"molecule": "c1ccc2[nH]nnc2c1", "note": "[BTA, benzotriazole]", "values": [{"measurement": "solubility of BTA in water", "setting": "10° C.", "value": "about 1%"}, {"measurement": "solubility of BTA in water", "setting": "20° C.", "value": "about 1.9%"}, {"measurement": "solubility of BTA in water", "setting": "30° C.", "value": "about 4%"}, {"measurement": "solubility of BTA in water", "setting": "80° C.", "value": "about 8%"}, {"measurement": "solubility in water", "setting": "water of 20° C.", "value": "about 1.9 wt-%"}]}]}
